In patent US20130267551A1, “SUBSTITUTED HYDROGENATED THIENO-PYRROLO[3,2-C]PYRIDINE, LIGANDS, A PHARMACEUTICAL COMPOSITION AND A METHOD FOR USING THE ABOVE” (ALLA CHEM, LLC, priority 2010, published 2013):
Where a name gives a salt, the structure may show the parent alone.

Tests used:
[1] = target: T1, Serotoninergic 5-HT2C (Homo sapiens, UniProt P28335); assay: competitive radioligand binding, Serotoninergic 5-HT2C; settings: compound concentration of 1 μM
T1 sequence (P28335 33-458): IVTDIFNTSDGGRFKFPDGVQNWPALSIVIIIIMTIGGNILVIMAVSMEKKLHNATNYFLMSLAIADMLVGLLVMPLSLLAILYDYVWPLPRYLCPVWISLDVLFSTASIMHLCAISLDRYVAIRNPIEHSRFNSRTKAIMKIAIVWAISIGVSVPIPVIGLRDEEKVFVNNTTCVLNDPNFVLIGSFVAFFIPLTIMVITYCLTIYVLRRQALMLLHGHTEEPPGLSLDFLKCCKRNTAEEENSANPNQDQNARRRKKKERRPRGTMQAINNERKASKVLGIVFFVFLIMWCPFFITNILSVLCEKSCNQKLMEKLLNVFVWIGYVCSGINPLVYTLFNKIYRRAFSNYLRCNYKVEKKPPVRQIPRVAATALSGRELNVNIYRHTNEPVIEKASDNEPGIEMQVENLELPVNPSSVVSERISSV
Procedure: (§1) Profiles of pharmacological activity of thieno-pyrrolo[3,2-c]pyridines of the general formula 1. Biological activity test of compounds of the general formula 1 was carried out in the setting of competitive radioligand binding [I. Okun, S. Tkachenko, A. Khvat, et al., Current Alzheimer Research, 7(2), 97-112 (2010)], using a wide range of therapeutic targets including G-protein coupled receptors (GPCR), ion channels and neuromediator transporters. The tested activity was determined by quantitative measurement of radio-labelled ligand displacement by tested compounds of the general formula 1 at their concentration of 1 μM.

[2] = target: Serotoninergic 5-HT6 (Homo sapiens, UniProt P50406); assay: competitive radioligand binding, Serotoninergic 5-HT6; settings: compound concentration of 1 μM
Procedure: as §1

[3] = target: T2, Dopaminergic D4.2 (Homo sapiens, UniProt P21917, DEL265-296); assay: competitive radioligand binding, Dopaminergic D4.2; settings: compound concentration of 1 μM
T2 sequence (P21917 with tags, fused parts or gaps DEL265-296): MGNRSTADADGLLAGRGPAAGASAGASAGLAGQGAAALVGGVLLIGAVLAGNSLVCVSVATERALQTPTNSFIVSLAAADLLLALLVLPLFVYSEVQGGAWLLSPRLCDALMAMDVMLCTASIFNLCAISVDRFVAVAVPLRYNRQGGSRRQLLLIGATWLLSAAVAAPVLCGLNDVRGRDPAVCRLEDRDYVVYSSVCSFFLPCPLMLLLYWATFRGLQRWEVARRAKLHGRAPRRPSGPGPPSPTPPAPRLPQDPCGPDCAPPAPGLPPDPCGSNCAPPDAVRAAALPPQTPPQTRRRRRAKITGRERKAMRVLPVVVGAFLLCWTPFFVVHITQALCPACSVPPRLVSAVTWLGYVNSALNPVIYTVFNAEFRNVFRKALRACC
Procedure: as §1

[4] = test system: Serotoninergic 5-HT1B; assay: competitive radioligand binding, Serotoninergic 5-HT1B; settings: compound concentration of 1 μM
Procedure: as §1

[5] = test system: Adrenergic α1A; assay: competitive radioligand binding, Adrenergic α1A; settings: compound concentration of 1 μM
Procedure: as §1

[6] = target: T3, Adrenergic α2A (Homo sapiens, UniProt P08913); assay: competitive radioligand binding, Adrenergic α2A; settings: compound concentration of 1 μM
T3 sequence (P08913 1-465): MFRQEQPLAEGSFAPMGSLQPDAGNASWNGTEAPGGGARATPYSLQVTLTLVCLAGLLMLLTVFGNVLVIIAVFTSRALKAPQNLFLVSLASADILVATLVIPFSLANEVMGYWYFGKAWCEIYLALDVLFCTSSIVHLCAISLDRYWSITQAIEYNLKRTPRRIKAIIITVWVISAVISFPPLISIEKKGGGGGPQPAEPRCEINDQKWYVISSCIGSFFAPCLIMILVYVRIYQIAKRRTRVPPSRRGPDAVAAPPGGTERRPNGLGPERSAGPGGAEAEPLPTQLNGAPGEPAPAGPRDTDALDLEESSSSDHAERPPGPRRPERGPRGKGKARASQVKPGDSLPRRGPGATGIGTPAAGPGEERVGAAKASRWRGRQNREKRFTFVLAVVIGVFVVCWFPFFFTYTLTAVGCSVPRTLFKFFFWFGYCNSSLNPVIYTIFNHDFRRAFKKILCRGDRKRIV
Procedure: as §1

[7] = target: T4, Adrenergic α1D (Homo sapiens, UniProt P25100); assay: competitive radioligand binding, Adrenergic α1D; settings: compound concentration of 1 μM
T4 sequence (P25100 1-572): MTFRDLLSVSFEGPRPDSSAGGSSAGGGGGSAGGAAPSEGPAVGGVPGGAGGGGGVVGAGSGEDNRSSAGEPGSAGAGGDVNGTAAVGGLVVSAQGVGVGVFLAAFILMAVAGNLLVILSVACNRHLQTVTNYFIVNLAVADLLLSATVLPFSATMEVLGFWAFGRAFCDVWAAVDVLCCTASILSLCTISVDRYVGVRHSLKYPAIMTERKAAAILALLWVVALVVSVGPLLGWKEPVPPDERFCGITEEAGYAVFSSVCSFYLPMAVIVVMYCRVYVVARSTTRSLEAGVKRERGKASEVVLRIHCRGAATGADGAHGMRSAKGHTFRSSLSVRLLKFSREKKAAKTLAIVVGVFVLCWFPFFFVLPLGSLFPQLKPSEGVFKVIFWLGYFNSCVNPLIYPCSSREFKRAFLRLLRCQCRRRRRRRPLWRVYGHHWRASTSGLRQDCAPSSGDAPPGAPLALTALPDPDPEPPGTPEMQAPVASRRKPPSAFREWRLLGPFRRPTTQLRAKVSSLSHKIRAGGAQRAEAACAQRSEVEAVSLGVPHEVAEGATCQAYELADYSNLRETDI
Procedure: as §1

[8] = target: Dopaminergic D1 (Homo sapiens, UniProt P21728); assay: competitive radioligand binding, Dopaminergic D1; settings: compound concentration of 1 μM
Procedure: as §1

[9] = test system: Therapeutic targets (Adrenergic, Dopaminergic, Histaminergic, Serotoninergic); assay: Profiles of pharmacological activity in competitive radioligand binding (whole panel); settings: 1 μM, grades not defined
Procedure: as §1

[10] = target: Histaminergic H3 (Homo sapiens, UniProt Q9Y5N1); assay: competitive radioligand binding, Histaminergic H3; settings: compound concentration of 1 μM; in % (unit assumed)
Procedure: as §1

[11] = test system: Adrenergic α1B; assay: competitive radioligand binding, Adrenergic α1B; settings: compound concentration of 1 μM
Procedure: as §1

[12] = target: Dopaminergic D2L (Homo sapiens, UniProt P14416); assay: competitive radioligand binding, Dopaminergic D2L; settings: compound concentration of 1 μM
Procedure: as §1

[13] = target: Serotoninergic 5-HT2B (Homo sapiens, UniProt P41595); assay: competitive radioligand binding, Serotoninergic 5-HT2B; settings: compound concentration of 1 μM
Procedure: as §1

[14] = target: Histaminergic H1 (Homo sapiens, UniProt P35367); assay: competitive radioligand binding, Histaminergic H1; settings: compound concentration of 1 μM
Procedure: as §1

[15] = target: Histaminergic H2 (Homo sapiens, UniProt P25021); assay: competitive radioligand binding, Histaminergic H2; settings: compound concentration of 1 μM
Procedure: as §1

[16] = target: Dopaminergic D2S (Homo sapiens, UniProt P14416); assay: competitive radioligand binding, Dopaminergic D2S; settings: compound concentration of 1 μM
Procedure: as §1

[17] = target: Dopaminergic D3 (Homo sapiens, UniProt P35462); assay: competitive radioligand binding, Dopaminergic D3; settings: compound concentration of 1 μM
Procedure: as §1

[18] = target: Serotoninergic 5-HT7 (Homo sapiens, UniProt P34969); assay: competitive radioligand binding, Serotoninergic 5-HT7; settings: compound concentration of 1 μM
Procedure: as §1

[19] = target: T5, Serotoninergic 5-HT1A (Homo sapiens, UniProt P08908); assay: competitive radioligand binding, Serotoninergic 5-HT1A; settings: compound concentration of 1 μM
T5 sequence (P08908 1-422): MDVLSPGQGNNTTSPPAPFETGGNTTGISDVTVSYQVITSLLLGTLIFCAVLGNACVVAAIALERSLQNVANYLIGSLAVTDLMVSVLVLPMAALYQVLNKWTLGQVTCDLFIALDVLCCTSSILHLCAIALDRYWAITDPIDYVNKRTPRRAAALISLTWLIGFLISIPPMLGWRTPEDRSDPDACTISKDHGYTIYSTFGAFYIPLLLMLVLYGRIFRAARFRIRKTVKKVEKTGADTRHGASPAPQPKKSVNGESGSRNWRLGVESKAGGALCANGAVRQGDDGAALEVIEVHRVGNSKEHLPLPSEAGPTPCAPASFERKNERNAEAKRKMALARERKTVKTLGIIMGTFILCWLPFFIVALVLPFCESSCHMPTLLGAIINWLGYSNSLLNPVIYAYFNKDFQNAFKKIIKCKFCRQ
Procedure: as §1

[20] = target: Serotoninergic 5-HT2A (Homo sapiens, UniProt P28223); assay: competitive radioligand binding, Serotoninergic 5-HT2A; settings: compound concentration of 1 μM
Procedure: as §1

Dopaminergic D2L, sequence (P14416 whole entry): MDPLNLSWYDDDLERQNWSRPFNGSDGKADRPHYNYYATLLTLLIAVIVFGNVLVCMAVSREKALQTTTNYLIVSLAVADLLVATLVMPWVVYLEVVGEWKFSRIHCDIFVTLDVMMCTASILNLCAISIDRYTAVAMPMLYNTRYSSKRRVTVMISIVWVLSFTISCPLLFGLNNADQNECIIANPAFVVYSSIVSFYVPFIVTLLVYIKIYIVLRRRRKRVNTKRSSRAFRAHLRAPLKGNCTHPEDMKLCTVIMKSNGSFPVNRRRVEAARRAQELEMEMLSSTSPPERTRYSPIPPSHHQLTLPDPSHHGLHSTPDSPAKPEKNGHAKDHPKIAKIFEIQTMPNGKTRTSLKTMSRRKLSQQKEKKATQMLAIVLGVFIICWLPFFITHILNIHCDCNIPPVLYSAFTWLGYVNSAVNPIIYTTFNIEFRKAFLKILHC
Serotoninergic 5-HT2B, sequence (P41595 whole entry): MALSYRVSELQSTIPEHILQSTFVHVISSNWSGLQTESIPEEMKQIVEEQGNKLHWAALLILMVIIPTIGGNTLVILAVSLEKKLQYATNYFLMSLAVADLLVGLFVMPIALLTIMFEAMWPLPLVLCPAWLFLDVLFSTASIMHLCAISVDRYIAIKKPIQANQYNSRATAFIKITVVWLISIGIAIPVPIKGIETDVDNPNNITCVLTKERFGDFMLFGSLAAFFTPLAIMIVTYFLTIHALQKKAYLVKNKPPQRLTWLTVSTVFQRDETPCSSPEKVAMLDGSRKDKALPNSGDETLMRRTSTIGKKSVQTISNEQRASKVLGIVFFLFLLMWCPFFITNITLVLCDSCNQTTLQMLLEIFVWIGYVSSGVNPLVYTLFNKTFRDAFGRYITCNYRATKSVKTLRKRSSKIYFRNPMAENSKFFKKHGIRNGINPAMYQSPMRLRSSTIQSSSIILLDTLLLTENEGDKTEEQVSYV
Serotoninergic 5-HT7, sequence (P34969 whole entry): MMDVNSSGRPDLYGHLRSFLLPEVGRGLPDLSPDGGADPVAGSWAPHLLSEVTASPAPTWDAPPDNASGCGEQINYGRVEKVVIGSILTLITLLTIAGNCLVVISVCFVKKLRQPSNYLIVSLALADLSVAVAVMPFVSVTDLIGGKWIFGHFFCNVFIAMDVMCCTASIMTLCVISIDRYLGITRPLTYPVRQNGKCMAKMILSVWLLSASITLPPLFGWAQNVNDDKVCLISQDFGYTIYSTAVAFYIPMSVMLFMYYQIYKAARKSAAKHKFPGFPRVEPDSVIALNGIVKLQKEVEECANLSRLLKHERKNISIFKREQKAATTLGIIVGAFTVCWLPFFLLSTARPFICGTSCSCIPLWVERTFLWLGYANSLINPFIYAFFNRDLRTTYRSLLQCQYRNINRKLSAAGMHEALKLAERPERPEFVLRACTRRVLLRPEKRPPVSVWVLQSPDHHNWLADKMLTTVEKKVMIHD
Histaminergic H3, sequence (Q9Y5N1 whole entry): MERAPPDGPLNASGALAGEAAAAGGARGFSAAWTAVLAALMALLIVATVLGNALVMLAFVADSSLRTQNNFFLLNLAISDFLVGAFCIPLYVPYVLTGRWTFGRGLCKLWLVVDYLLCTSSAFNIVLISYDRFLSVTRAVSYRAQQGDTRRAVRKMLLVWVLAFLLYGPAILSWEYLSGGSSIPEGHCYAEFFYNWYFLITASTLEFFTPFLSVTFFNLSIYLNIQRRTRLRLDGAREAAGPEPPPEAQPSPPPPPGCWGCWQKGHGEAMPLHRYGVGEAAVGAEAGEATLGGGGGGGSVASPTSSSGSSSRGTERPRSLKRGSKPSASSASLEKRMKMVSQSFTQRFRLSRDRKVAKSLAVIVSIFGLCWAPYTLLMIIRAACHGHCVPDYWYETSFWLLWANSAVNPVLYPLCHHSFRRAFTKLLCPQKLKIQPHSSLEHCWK
Serotoninergic 5-HT6, sequence (P50406 whole entry): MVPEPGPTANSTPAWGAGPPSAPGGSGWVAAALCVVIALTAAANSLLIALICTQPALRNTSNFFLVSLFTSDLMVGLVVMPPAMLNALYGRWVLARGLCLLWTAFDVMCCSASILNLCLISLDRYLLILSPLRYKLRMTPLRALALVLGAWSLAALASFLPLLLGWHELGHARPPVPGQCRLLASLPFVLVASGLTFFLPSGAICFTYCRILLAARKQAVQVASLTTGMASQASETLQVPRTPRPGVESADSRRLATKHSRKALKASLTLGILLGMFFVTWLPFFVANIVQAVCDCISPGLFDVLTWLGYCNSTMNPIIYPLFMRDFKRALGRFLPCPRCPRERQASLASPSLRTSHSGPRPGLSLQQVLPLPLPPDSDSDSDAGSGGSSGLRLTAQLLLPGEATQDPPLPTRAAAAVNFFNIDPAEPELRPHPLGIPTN
Dopaminergic D2S, sequence (P14416 1-414 isoform P14416-2): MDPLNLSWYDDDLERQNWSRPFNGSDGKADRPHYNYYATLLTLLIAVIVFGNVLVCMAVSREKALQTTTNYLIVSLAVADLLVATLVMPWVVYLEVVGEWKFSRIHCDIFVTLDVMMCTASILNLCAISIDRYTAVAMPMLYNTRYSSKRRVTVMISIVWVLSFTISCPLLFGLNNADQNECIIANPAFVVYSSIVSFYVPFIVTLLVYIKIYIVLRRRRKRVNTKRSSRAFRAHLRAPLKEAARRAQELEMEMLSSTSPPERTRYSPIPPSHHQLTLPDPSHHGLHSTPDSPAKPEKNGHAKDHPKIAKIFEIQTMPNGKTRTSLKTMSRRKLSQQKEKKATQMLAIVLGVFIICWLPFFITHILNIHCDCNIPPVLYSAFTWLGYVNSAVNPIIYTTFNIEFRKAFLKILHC
Histaminergic H2, sequence (P25021 whole entry): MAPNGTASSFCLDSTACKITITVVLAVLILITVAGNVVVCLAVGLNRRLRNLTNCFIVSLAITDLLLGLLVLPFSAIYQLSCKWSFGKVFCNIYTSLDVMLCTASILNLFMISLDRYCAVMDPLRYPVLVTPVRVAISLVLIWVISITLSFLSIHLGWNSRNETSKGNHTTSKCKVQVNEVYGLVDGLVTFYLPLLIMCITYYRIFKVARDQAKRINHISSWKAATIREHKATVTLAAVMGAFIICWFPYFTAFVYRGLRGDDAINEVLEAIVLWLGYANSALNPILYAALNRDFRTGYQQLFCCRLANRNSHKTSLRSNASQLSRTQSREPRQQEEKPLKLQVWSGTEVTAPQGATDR
Dopaminergic D3, sequence (P35462 whole entry): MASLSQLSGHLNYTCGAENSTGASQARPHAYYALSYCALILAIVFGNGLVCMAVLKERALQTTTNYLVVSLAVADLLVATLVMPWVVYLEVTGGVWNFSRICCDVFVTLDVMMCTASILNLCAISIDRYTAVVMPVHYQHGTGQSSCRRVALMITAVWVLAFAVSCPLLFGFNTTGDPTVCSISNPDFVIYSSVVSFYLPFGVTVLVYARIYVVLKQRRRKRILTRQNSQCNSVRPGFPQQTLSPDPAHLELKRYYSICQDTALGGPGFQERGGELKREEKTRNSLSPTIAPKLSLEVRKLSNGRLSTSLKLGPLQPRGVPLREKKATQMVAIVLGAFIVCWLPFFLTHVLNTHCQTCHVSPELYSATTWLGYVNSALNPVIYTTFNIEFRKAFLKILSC
Dopaminergic D1, sequence (P21728 whole entry): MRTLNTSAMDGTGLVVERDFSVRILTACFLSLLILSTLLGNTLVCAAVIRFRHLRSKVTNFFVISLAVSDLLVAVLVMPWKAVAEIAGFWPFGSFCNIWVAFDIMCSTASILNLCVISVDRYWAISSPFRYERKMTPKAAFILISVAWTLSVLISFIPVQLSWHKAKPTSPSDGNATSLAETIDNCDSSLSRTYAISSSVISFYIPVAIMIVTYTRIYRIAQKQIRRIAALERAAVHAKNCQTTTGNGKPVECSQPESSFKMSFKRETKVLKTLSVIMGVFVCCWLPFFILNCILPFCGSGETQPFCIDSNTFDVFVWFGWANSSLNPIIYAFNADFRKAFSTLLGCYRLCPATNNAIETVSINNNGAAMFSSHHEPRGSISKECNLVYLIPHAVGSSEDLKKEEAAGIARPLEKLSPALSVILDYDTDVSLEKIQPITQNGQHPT
Serotoninergic 5-HT2A, sequence (P28223 whole entry): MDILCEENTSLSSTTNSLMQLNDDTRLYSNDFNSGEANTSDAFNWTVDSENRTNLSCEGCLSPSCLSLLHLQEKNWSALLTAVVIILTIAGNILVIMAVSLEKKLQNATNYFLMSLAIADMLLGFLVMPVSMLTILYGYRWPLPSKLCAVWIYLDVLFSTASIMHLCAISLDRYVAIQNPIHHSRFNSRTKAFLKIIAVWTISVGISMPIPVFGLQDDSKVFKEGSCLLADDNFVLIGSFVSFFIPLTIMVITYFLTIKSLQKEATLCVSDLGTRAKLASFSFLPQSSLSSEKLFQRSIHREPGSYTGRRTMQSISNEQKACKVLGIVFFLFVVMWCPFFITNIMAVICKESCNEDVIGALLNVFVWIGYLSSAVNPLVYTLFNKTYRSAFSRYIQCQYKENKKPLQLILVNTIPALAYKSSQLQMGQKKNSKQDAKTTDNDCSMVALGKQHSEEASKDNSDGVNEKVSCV
Histaminergic H1, sequence (P35367 whole entry): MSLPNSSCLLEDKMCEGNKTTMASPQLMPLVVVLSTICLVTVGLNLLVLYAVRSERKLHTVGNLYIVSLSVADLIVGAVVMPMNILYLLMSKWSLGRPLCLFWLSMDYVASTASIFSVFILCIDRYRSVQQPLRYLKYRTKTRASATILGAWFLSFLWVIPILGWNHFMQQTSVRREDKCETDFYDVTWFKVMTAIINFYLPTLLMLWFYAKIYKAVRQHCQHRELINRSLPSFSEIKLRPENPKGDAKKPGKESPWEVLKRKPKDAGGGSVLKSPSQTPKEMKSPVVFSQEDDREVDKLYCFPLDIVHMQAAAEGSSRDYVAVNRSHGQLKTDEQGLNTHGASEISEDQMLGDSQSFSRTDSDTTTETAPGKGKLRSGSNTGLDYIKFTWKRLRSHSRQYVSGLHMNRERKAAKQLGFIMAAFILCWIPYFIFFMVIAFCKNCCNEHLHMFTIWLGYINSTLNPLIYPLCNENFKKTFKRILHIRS

| Compound | radio-labelled ligand displacement, Serotoninergic 5-HT2C [1] [%] | radio-labelled ligand displacement, Serotoninergic 5-HT6 [2] [%] | radio-labelled ligand displacement, Dopaminergic D4.2 [3] [%] | radio-labelled ligand displacement, Serotoninergic 5-HT1B [4] [%] | radio-labelled ligand displacement, Adrenergic α1A [5] [%] | radio-labelled ligand displacement, Adrenergic α2A [6] [%] | radio-labelled ligand displacement, Adrenergic α1D [7] [%] | radio-labelled ligand displacement, Dopaminergic D1 [8] [%] | grade of the activity profile (poor / satisfactory / good) [9] | radio-labelled ligand displacement, Histaminergic H3 [10] | radio-labelled ligand displacement, Adrenergic α1B [11] [%] | radio-labelled ligand displacement, Dopaminergic D2L [12] [%] | radio-labelled ligand displacement, Serotoninergic 5-HT2B [13] [%] | radio-labelled ligand displacement, Histaminergic H1 [14] [%] | radio-labelled ligand displacement, Histaminergic H2 [15] [%] | radio-labelled ligand displacement, Dopaminergic D2S [16] [%] | radio-labelled ligand displacement, Dopaminergic D3 [17] [%] | radio-labelled ligand displacement, Serotoninergic 5-HT7 [18] [%] | radio-labelled ligand displacement, Serotoninergic 5-HT1A [19] [%] | radio-labelled ligand displacement, Serotoninergic 5-HT2A [20] [%] |
| --- | --- | --- | --- | --- | --- | --- | --- | --- | --- | --- | --- | --- | --- | --- | --- | --- | --- | --- | --- | --- |
| Cc1csc2c1c1c(n2CCCc2ccccc2)CCN(C)C1 [3.12(1)•HCl] | 97 | 101 | 73 | 54 | 98 | 101 | 92 | 57 | good | 11 | 99 | 82 | 91 | 98 | 99 | 89 | 75 | 98 | 43 | 99 |
| Cc1ccc(C=CCn2c3c(c4cc(C)sc42)CN(C)CC3)cc1 [3.11(2)•HCl, 2,5-dimethyl-8-[3-(p-tolyl)allyl]-4,5,6,7-tetrahydro-5H-thieno[3′,2′:4,5]pyrrolo[3,2-c]pyridine] | 93 | 95 | 13 | 39 | 55 | 53 | 42 | 10 | satisfactory | 7 | 60 | 50 | 89 | 81 | 50 | 61 | 49 | 85 | 21 | 93 |
| CN1CCc2c(c3cc(Cl)sc3n2CCCc2cccc(F)c2)C1 [3.12(6)•HCl, 5-methyl-8-[(3-fluorophenyl)propyl]-2-chloro-4,5,6,7-tetrahydro-5H-thieno[3′,2′:4,5]pyrrolo[3,2-c]pyridine] | 98 | 84 | 68 | 43 | 84 | 91 | 83 | 63 | good | −1 | 96 | 81 | 91 | 97 | 91 | 77 | 69 | 95 | 50 | 97 |
| Cc1cc2c3c(n(CC(O)c4ccccc4)c2s1)CCN(C)C3.Cl (stereo not shown) [3.7(1)•HCl, 2-(2,5-Dimethyl-4,5,6,7-tetrahydro-5H-thieno[3′,2′:4,5]pyrrolo[3,2-c]pyridin-8-yl)-1-phenylethanol hydrochloride] | 94 | 99 | 33 | 30 | 79 | 91 | 86 | 47 | – | −3 | 89 | 35 | 63 | 89 | 57 | 29 | 23 | 96 | 18 | 97 |
